Consider 26 compounds from patent US8883782B2, “Spiro-tetracyclic ring compounds as beta-secretase modulators and methods of use” (Amgen Inc., priority 2010, dated 2014).

Test [1] concerns Aβ40 in conditioned medium of cells stably expressing Amyloid Precursor Protein (APP). Nature of the test: In vitro BACE cell-based assay (Aβ40 in conditioned medium, sandwich ELISA). The settings on record: read-out: HEK cell assay. The procedure, abridged:
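Secreted Aβ40 is captured with pAb40 and detected with biotinylated 6E10, read by europium time-resolved fluorescence. IC50 comes from percent inhibition versus concentration.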

In test [2] the target is Beta Secretase enzyme (BACE) (Homo sapiens, UniProt P56817). Briefly: In vitro enzymatic BACE FRET (fluorescence resonance energy transfer) assay. In kind it is biochemical. As to conditions: average IC50, enzyme assay; read-out: BACE 1 FRET assay. The gist of the method:
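Fluorescence read after Tris quench (pH raised to neutrality) of a one-hour BACE reaction. Buffer: acetate 0.05 M, pH 4.2, with 100 uM genapol and 10% DMSO final; started by adding 50 nM FRET peptide substrate spanning the cleavage site.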

[3] abbreviates: Homo sapiens, HEK293, average IC50.
[4] abbreviates: Homo sapiens, HEK293, average IC50, HEK cells.

Where two headings read alike, the source gives them in different places.

Chain of Beta Secretase enzyme (BACE) (P56817 46-501, species assumed): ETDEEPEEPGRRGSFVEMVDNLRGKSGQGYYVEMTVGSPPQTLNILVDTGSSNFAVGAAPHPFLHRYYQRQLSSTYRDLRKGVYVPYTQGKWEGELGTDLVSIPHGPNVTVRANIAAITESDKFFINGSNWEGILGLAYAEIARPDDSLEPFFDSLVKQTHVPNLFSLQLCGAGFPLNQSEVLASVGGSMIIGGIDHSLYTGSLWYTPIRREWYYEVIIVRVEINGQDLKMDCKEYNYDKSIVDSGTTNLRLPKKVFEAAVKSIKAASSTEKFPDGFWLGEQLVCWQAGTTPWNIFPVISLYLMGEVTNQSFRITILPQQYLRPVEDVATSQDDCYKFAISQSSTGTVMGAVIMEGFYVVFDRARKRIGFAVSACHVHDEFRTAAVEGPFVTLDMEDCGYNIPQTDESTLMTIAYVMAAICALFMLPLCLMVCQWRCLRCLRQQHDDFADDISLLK

Turning to `COc1cccc(Nc2ccc3c(c2)[C@@]2(COC(N)=N2)c2cc(C4=CCOCC4)cc(F)c2O3)c1` [Example 197, (4S)-7′-(3,6-dihydro-2H-pyran-4-yl)-5′-fluoro-N~2~′-(3-methoxyphenyl)spiro[1,3-oxazole-4,9′-xanthene]-2,2′-diamine], the IC50 in test [1] (setting [3]) turned out to be 680 nM; in test [2] it was 36.8 nM.

Take `Cc1cc(-c2ccc3c(c2)[C@@]2(COC(N)=N2)c2cc(C#CC4(C)COC4)cnc2O3)cnc1F` [Example 468, (5S)-7-(6-fluoro-5-methyl-3-pyridinyl)-3-((3-methyl-3-oxetanyl)ethynyl)spiro[chromeno[2,3-b]pyridine-5,4′-[1,3]oxazol]-2′-amine]: the results for the IC50 in test [1] (setting [4]) and in test [2] were 28.7 nM and 7.4 nM, respectively.

For the compound `NC1=N[C@]2(CS1)c1cc(-c3cncnc3)c(F)cc1Oc1c(F)cc(N3CCOCC3)cc12` [Example 887, (4R)-3′,5′-difluoro-7′-(4-morpholinyl)-2′-(5-pyrimidinyl)spiro[1,3-thiazole-4,9′-xanthen]-2-amine], the values for the IC50 in test [1] (setting [4]) and in test [2] were at least 10000 nM and 4740 nM, respectively.

In the case of `NC1=N[C@]2(CO1)c1cc(-c3cnccc3F)c(F)cc1Oc1ncc(C3=CCOCC3)cc12` [Example 645, (5R)-3-(3,6-dihydro-2H-pyran-4-yl)-8-fluoro-7-(4-fluoro-3-pyridinyl)spiro[chromeno[2,3-b]pyridine-5,4′-[1,3]oxazol]-2′-amine], the IC50 was determined as 291 nM in test [1] (setting [4]) and 53.1 nM in test [2].

With `CC1(C#Cc2cc3c(c(F)n2)Oc2ccc(-c4cccnc4F)cc2C32COC(N)=N2)COC1` (stereo not shown) [Example 733, 1-fluoro-7-(2-fluoro-3-pyridinyl)-3-((3-methyl-3-oxetanyl)ethynyl)spiro[chromeno[2,3-c]pyridine-5,4′-[1,3]oxazol]-2′-amine], the IC50 in test [1] (setting [3]) is 18 nM; in test [2] it was 1.1 nM.

For the compound `CC1(C)C=C(c2cnc3c(c2)[C@@]2(COC(N)=N2)c2c(ccc(-c4cccnc4F)c2F)O3)CCO1` [Example 350, (5S)-3-(6,6-dimethyl-3,6-dihydro-2H-pyran-4-yl)-6-fluoro-7-(2-fluoro-3-pyridinyl)spiro[chromeno[2,3-b]pyridine-5,4′-[1,3]oxazol]-2′-amine], the IC50 in test [1] (setting [3]) was found to be 685 nM; in test [2], 530 nM.

As to `CC(C)(O)CCc1cc(F)c2c(c1)[C@]1(COC(N)=N1)c1cc(-c3cccnc3F)ccc1O2` [Example 92, (S)-4-(2-amino-5′-fluoro-2′-(2-fluoropyridin-3-yl)-5H-spiro[oxazole-4,9′-xanthene]-7′-yl)-2-methylbutan-2-ol], the results for the IC50 in test [1] (setting [3]) and in test [2] were 4.2 nM and 1 nM, respectively.

In the case of `NC1=N[C@@]2(CO1)c1cc(-c3cncc(F)c3)ccc1Oc1c(F)cc(N3CC4CCC(C3)O4)cc12` [Example 283, (4S)-4′-fluoro-7′-(5-fluoro-3-pyridinyl)-2′-(8-oxa-3-azabicyclo[3.2.1]oct-3-yl)spiro[1,3-oxazole-4,9′-xanthen]-2-amine], the IC50 in test [1] (setting [3]) came to 3.2 nM; in test [2] it was 0.4 nM.

On to `CC1(C#Cc2cc3c(cc2F)Oc2ccc(-c4cccnc4F)cc2[C@@]32COC(N)=N2)COC1` [Example 312, (4S)-3′-fluoro-7′-(2-fluoro-3-pyridinyl)-2′-((3-methyl-3-oxetanyl)ethynyl)spiro[1,3-oxazole-4,9′-xanthen]-2-amine], for which the IC50 was 30.3 nM in test [1] (setting [3]) and 2.5 nM in test [2].

For the compound `COc1ncc(-c2cc(F)c3c(c2)[C@]2(COC(N)=N2)c2cc(-c4cccnc4F)ccc2O3)cn1` [Example 213, (4S)-4′-fluoro-7′-(2-fluoro-3-pyridinyl)-2′-(2-methoxy-5-pyrimidinyl)spiro[1,3-oxazole-4,9′-xanthen]-2-amine], the values for the IC50 in test [1] (setting [3]) and in test [2] were 21.6 nM and 2.7 nM, respectively.

In the case of `C[C@@](C#Cc1cnc2c(c1)[C@]1(COC(N)=N1)c1cc(-c3cccnc3F)ccc1O2)(CO)CCl` (single isomer, unassigned) [Example 1014], the IC50 in test [1] amounted to 21 nM; in test [2], 2.2 nM.

As to `CC(C)(C)COc1cc(F)c2c(c1)[C@]1(COC(N)=N1)c1cc(-c3cncnc3)c(F)cc1O2` [Example 526, (4S)-7′-(2,2-dimethylpropoxy)-3′,5′-difluoro-2′-(5-pyrimidinyl)spiroy[1,3-oxazole-4,9′-xanthen]-2-amine], the IC50 in test [1] (setting [4]) turned out to be 9.1 nM; in test [2], 2 nM.

As to `Cc1cnc(F)c(-c2ccc3c(c2)[C@@]2(COC(N)=N2)c2cc(N4CCC(F)(F)C4)ncc2O3)c1` [Example 421, (5S)-3-(3,3-difluoro-1-pyrrolidinyl)-7-(2-fluoro-5-methyl-3-pyridinyl)spiro[chromeno[2,3-c]pyridine-5,4′-[1,3]oxazol]-2′-amine], the values for the IC50 in test [1] (setting [4]) and in test [2] were 5.3 nM and 0.5 nM, respectively.

Regarding `CC1(C#Cc2cc3c(cn2)Oc2ccc(-c4ccccc4)cc2[C@@]32COC(N)=N2)COC1` [Example 155, (5S)-3-((3-methyl-3-oxetanyl)ethynyl)-7-phenylspiro[chromeno[2,3-c]pyridine-5,4′-[1,3]oxazol]-2′-amine], the IC50 in test [1] (setting [3]) is 173 nM; in test [2], 17.3 nM.

Turning to `NC1=N[C@]2(CO1)c1cc(C3=CCCOC3)ccc1Oc1cc(F)c(-c3cncnc3)cc12` [Example 514, (4R)-7′-(5,6-dihydro-2H-pyran-3-yl)-3′-fluoro-2′-(5-pyrimidinyl)spiro[1,3-oxazole-4,9′-xanthen]-2-amine], the IC50 in test [1] (setting [4]) was 11.4 nM; in test [2] it was 2.6 nM.

As to `NC1=N[C@@]2(CO1)c1cc(-c3cccnc3F)ccc1Oc1c2cc([C@@H]2CCCCO2)nc1F` [Example 659, (5S)-1-fluoro-7-(2-fluoro-3-pyridinyl)-3-((2S)-tetrahydro-2H-pyran-2-yl)spiro[chromeno[2,3-c]pyridine-5,4′-[1,3]oxazol]-2′-amine], the IC50 in test [1] (setting [4]) turned out to be 19 nM; in test [2], 1.4 nM.

As to `COc1ccc(-c2cc(F)c3c(c2)[C@]2(COC(N)=N2)c2cc(-c4cncc(F)c4)ccc2O3)nn1` [Example 290, (4S)-4′-fluoro-7′-(5-fluoro-3-pyridinyl)-2′-(6-methoxy-3-pyridazinyl)spiro[1,3-oxazole-4,9′-xanthen]-2-amine], the IC50 was found to be 8.1 nM in test [1] (setting [3]) and 0.8 nM in test [2].

`NC1=N[C@]2(CO1)c1cc(N3CC[C@@H](F)C3)cc(F)c1Oc1ccc(-c3cccnc3F)c(F)c12` [Example 1053, (4R)-1′,5′-difluoro-2′-(2-fluoro-3-pyridinyl)-7′-((3R)-3-fluoro-1-pyrrolidinyl)spiro[1,3-oxazole-4,9′-xanthen]-2-amine]: the IC50 in test [1] (setting [3]) turned out to be 79 nM; in test [2], 10.3 nM.

As to `NC1=N[C@@]2(CO1)c1cc(-c3cccc(Cl)c3)ccc1Oc1cnc(-c3ccc(F)c(F)c3)cc12` [Example 550, (5S)-7-(3-chlorophenyl)-3-(3,4-difluorophenyl)spiro[chromeno[2,3-c]pyridine-5,4′-[1,3]oxazol]-2′-amine], the IC50 stood at 127 nM in test [1] (setting [4]) and 0.5 nM in test [2].

Take `CC(C)(C#N)COc1ccc2c(c1)[C@@]1(COC(N)=N1)c1cc(Br)cc(F)c1O2` [Example 442, 3-(((4S)-2-amino-7′-bromo-5′-fluorospiro[1,3-oxazole-4,9′-xanthen]-2′-yl)oxy)-2,2-dimethylpropanenitrile]: the results for the IC50 in test [1] (setting [4]) and in test [2] were 1810 nM and 152 nM, respectively.

As for `COc1ncc(-c2cc(F)c3c(c2)[C@]2(COC(N)=N2)c2cc(-c4cncc(F)c4)ccc2O3)cn1` [Example 293, (4S)-4′-fluoro-7′-(5-fluoro-3-pyridinyl)-2′-(2-methoxy-5-pyrimidinyl)spiro[1,3-oxazole-4,9′-xanthen]-2-amine], the IC50 in test [1] (setting [3]) is 82.5 nM; in test [2], 7.5 nM.

`NC1=N[C@@]2(CO1)c1cc(-c3cncnc3)c(F)cc1Oc1c(F)cc(C3=CCCOC3)cc12` [Example 1039, (4S)-7′-(5,6-dihydro-2H-pyran-3-yl)-3′,5′-difluoro-2′-(5-pyrimidinyl)spiro[1,3-oxazole-4,9′-xanthen]-2-amine]: the IC50 in test [1] (setting [3]) worked out at 8 nM; in test [2], 0.4 nM.

As for `CC1(/C=C/c2cc(F)c3c(c2)[C@]2(COC(N)=N2)c2cc(-c4cccnc4F)ccc2O3)COC1` [Example 561, (4S)-4′-fluoro-7′-(2-fluoro-3-pyridinyl)-2′-((E)-2-(3-methyl-3-oxetanyl)ethenyl)spiro[1,3-oxazole-4,9′-xanthen]-2-amine], the IC50 in test [1] (setting [4]) turned out to be 3.7 nM; in test [2], 2 nM.

Take `CC1(C)C=C(c2cc3c(cn2)Oc2ccc(-c4cncnc4)cc2[C@@]32COC(N)=N2)CCO1` [Example 543, (5S)-3-(6,6-dimethyl-3,6-dihydro-2H-pyran-4-yl)-7-(5-pyrimidinyl)spiro[chromeno[2,3-c]pyridine-5,4′-[1,3]oxazol]-2′-amine]: the IC50 in test [1] (average IC50, HEK cells) amounted to 24.6 nM; in test [2], 1.6 nM.

Consider `CC1(C)C[C@@H](c2cnc3c(c2)[C@]2(COC(N)=N2)c2cc(-c4cncc(Cl)c4)ccc2O3)CCO1` [Example 476, (5S)-7-(5-chloro-3-pyridinyl)-3-((4S)-2,2-dimethyltetrahydro-2H-pyran-4-yl)spiro[chromeno[2,3-b]pyridine-5,4′-[1,3]oxazol]-2′-amine], for which the IC50 in test [1] (average IC50, HEK cells) was 4.9 nM; in test [2], 1.3 nM.

On to `Cn1cc(-c2cc3c(cn2)Oc2ccc(-c4cncc(Cl)c4)cc2[C@@]32COC(N)=N2)cn1` [Example 232, (5S)-7-(5-chloro-3-pyridinyl)-3-(1-methyl-1H-pyrazol-4-yl)spiro[chromeno[2,3-c]pyridine-5,4′-[1,3]oxazol]-2′-amine], for which the IC50 was found to be 7.4 nM in test [1] (setting [3]) and 1.3 nM in test [2].
